What was measured:
[1] = tested on: antibodies raised against an immunogen having the structure shown in FIG. 28; test: Fluorescence polarization immunoassay cross-reactivity in drug-free normal human urine, tracer of FIG. 5; format: binding, sheep; details: for amount of the test compound found in the resulting human urine: 200 ng/mL added to drug-free urine, secobarbital standard
Description: (§1) The antibodies of the present invention are prepared by eliciting a response in sheep to the immunogens described supra. The immunogen is administered to animals or to in vitro cultures of immunocompetent cells by a series of innoculations, in a manner well known to those skilled in the art.
(§2) The tracer formulation presently preferred is 150 nanomolar tracer in: 0.1 molar phosphate buffer at pH 6.2; 5% sodium 5-sulfosalicylate; 0.1% sodium azide; and 0.01% bovine gamma-globulin. The antiserum formulation comprises sheep serum diluted with: 0.1 molar tris buffer at pH 7.5; 0.1% sodium azide; 0.1% bovine gamma-globulin; and 2% ethylene glycol (volume/volume). The dilution buffer comprises: 0.1 molar sodium phosphate at pH 7.5; 0.1% sodium azide; and 0.01% bovine gamma-globulin. The pretreatment solution comprises: 0.01% bovine gamma-globulin; 0.1 molar tris buffer at pH 7.5; 0.1% sodium azide; and 10 mg/mL riboflavin binding protein.
(§3) A minimum of fifty microliters of urine is required. The calibrators, controls, or unknown samples are pipetted directly into the sample well of the TDx® or ADx® sample cartridge. […] The assay procedure from this point is fully automated.
(§4) If a manual assay is being performed, then the sample is mixed with the pretreatment solution in dilution buffer and a background reading is taken. The tracer and antibody are then mixed into the test solution. After incubation, a fluorescence polarization reading is taken.
(§5) The net fluorescence polarization value of each calibrator, control or sample is determined and is printed on the output tape of an instrument such as the Abbott TDx® Analyzer. […] The concentration of each control or sample is read off the stored calibration curve and printed on the output tape.
Cross-reactivity was tested by the method of the present invention for the commonly-used barbiturates. […]
The five columns indicate the following information:
In other words, when 200 ng of secobarbital were added to drug-free normal human urine, approximately 200 ng of secobarbital were detected in the resulting urine sample. Thus, the closer the factor is to 1.0, the more accurate the assay is with respect to the particular test compound analyzed.
The percent cross-reactivity value presented in column five was obtained by the following mathematical formula: [formula]
(§6) The five columns in Tables 4(a) and 4(b) indicate the same information as is described above for Table 3(a).

[2] = tested on: antibodies raised against an immunogen having the structure shown in FIG. 29; test: Fluorescence polarization immunoassay cross-reactivity, tracer of FIG. 31; format: binding, sheep; details: tracer FIG. 31
Description: as §1

[3] = tested on: antibodies raised against an immunogen having the structure shown in FIG. 29; test: Fluorescence polarization immunoassay cross-reactivity in drug-free normal human urine, tracer of FIG. 30; format: binding, sheep; details: for amount of the test compound found in the resulting human urine: 200 ng/mL added to drug-free urine, secobarbital standard; for % CR / Conc. Found: tracer FIG. 30
Description: as §1, §2, §3, §4, §5
Cross-reactivity was tested by the method of the present invention for the commonly-used barbiturates. In each case, compounds were assayed on the Abbott Laboratories+ TDx® Clinical Analyzer or the ADx® Drugs of Abuse System after adding a known quantity (200 ng/mL) of the barbiturate test compound to drug-free normal human urine.
as §6

[4] = Long-term tracer stability: polarization and net intensity after storage (Tables 2(a), 2(b)); format: physicochemical
From the text: The data presented in Tables 2(a) and 2(b) below indicate that a tracer which has an ethylene (—CH═CH—) linkage group between the fluorescein and the ligand component of the tracer remains stable at varied temperatures for a period of at least one and one half years. While a tracer having the chemical structure shown in FIG. 5 was employed to generate the data presented in Table 2(a), a tracer having the chemical structure shown in FIG. 30 was employed to generate the data presented in Table 2(b).

[5] = 200 ng/mL added, listed as secobarbital

For C=CCC1(CC(C)C)C(=O)NC(=O)NC1=O [Butalbital], which “factor which overestimates or underestimates the compound assayed for” value ([1]; 200 ng/mL added) is on record?
Its value is 1.00.

And the percent cross reactivity ([1]; 200 ng/mL added)?
The percent cross reactivity was 100%.

What about the “amount of the test compound found in the resulting human urine” value (“amount … in the resulting human urine” below) [1] of the same compound?
The value was 201 ng/mL.

And the “% CR” value ([2]; Conc. Added 1200 ng/mL)?
The value was greater than 167%.

And the “factor which overestimates or underestimates the compound assayed for” value ([3]; 200 ng/mL added)?
The value was 1.13.

What about the percent cross reactivity ([3]; 200 ng/mL added) of the same compound?
Its percent cross reactivity is 113%.

And the “amount … in the resulting human urine” value [3]?
The value was 227 ng/mL.

And the “% CR” value ([3]; Conc. Added 1200 ng/mL)?
Its value is 167%.

What about the “Conc. Found” value ([3]; Conc. Added 1200 ng/mL) of the same compound?
The value was 2000 ng/mL.

For CCCC(C)C1(CC)C(=O)NC(=O)NC1=O (centres unmarked) [Pentobarbital], which “factor which overestimates or underestimates the compound assayed for” value ([1]; 200 ng/mL added) is on record?
Its value is 1.05.

What about the percent cross reactivity ([1]; 200 ng/mL added) of the same compound?
The percent cross reactivity was 105%.

What about the “amount … in the resulting human urine” value [1] of the same compound?
Its value is 210 ng/mL.

What about the “% CR” value ([2]; Conc. Added 1200 ng/mL) of the same compound?
Its value is 64%.

And the “Conc. Found” value ([2]; Conc. Added 1200 ng/mL)?
The value was 770 ng/mL.

What about the “factor which overestimates or underestimates the compound assayed for” value ([3]; 200 ng/mL added) of the same compound?
Its value is 0.65.

What about the percent cross reactivity ([3]; 200 ng/mL added) of the same compound?
Its percent cross reactivity is 65%.

And the “amount … in the resulting human urine” value [3]?
Its value is 129 ng/mL.

And the “% CR” value ([3]; Conc. Added 1200 ng/mL)?
The value was 62%.

What about the “Conc. Found” value ([3]; Conc. Added 1200 ng/mL) of the same compound?
Its value is 740 ng/mL.

Which “factor which overestimates or underestimates the compound assayed for” value ([1]; 200 ng/mL added) does the source give for C=CCC1(C(C)CCC)C(=O)NC(=O)NC1=O (centres unmarked) [Secobarbital] here?
The value was 1.00.

What about the percent cross reactivity ([1]; 200 ng/mL added) of the same compound?
The percent cross reactivity was 100%.

And the “amount … in the resulting human urine” value [1]?
The value was 200 ng/mL.

And the “factor which overestimates or underestimates the compound assayed for” value [1, 5]?
Its value is 1.0.

What about the percent cross reactivity [1, 5] of the same compound?
The percent cross reactivity was 100%.

What about the “factor which overestimates or underestimates the compound assayed for” value ([3]; 200 ng/mL added) of the same compound?
Its value is 1.00.

What about the percent cross reactivity ([3]; 200 ng/mL added) of the same compound?
The percent cross reactivity was 100%.

And the “amount … in the resulting human urine” value [3]?
Its value is 200 ng/mL.

With Butobarbital as the compound, how does the “% CR” value ([3]; Conc. Added 1200 ng/mL) read?
Its value is 48%.

And the “Conc. Found” value ([3]; Conc. Added 1200 ng/mL)?
Its value is 580 ng/mL.

With CCCC(C)C1(C/C=C/C(=O)NCc2c(O)ccc3c2Oc2cc(O)ccc2C32OC(=O)c3ccccc32)C(=O)NC(=O)NC1=O (centres unmarked) [FIG. 5] as the compound, how does the “Average Net Intensity” value ([4]; 1 Year, 2-8 °C) read?
Its value is 3161-4615.

And the Polarization ([4]; 1 Year, 2-8 °C)?
The Polarization was 204.85.

And the “Average Net Intensity” value ([4]; 18 Months, 2-8 °C)?
Its value is 3304-4798.

And the Polarization ([4]; 18 Months, 2-8 °C)?
The Polarization was 199.29.

What about the “Average Net Intensity” value ([4]; Day 0, 2-8 °C) of the same compound?
The value was 3400-5000.

What about the Polarization ([4]; Day 0, 2-8 °C) of the same compound?
Its Polarization is 209.17.

And the “Average Net Intensity” value ([4]; Day 1, 2-8 °C)?
The value was 3290-4733.

What about the Polarization ([4]; Day 1, 2-8 °C) of the same compound?
Its Polarization is 206.61.

What about the “Average Net Intensity” value ([4]; Day 2, 2-8 °C) of the same compound?
Its value is 3200-4670.

And the Polarization ([4]; Day 2, 2-8 °C)?
Its Polarization is 207.07.

What about the “Average Net Intensity” value ([4]; Day 3, 2-8 °C) of the same compound?
Its value is 3367-4895.

And the Polarization ([4]; Day 3, 2-8 °C)?
The Polarization was 208.05.

And the “Average Net Intensity” value ([4]; Day 3, 37 °C)?
Its value is 3400-4910.

What about the Polarization ([4]; Day 3, 37 °C) of the same compound?
The Polarization was 207.60.

And the “Average Net Intensity” value ([4]; Day 3, 45 °C)?
The value was 3400-4950.

And the Polarization ([4]; Day 3, 45 °C)?
Its Polarization is 205.51.

And the “Average Net Intensity” value ([4]; Day 3, −20 °C)?
The value was 3395-4965.

What about the Polarization ([4]; Day 3, −20 °C) of the same compound?
Its Polarization is 207.38.

What about the “Average Net Intensity” value ([4]; Month 2, 2-8 °C) of the same compound?
Its value is 3282-4777.

And the Polarization ([4]; Month 2, 2-8 °C)?
The Polarization was 207.21.

And the “Average Net Intensity” value ([4]; Month 4, 2-8 °C)?
The value was 3210-4775.

And the Polarization ([4]; Month 4, 2-8 °C)?
Its Polarization is 205.59.

And the “Average Net Intensity” value ([4]; Month 8, 2-8 °C)?
Its value is 3150-4677.

What about the Polarization ([4]; Month 8, 2-8 °C) of the same compound?
Its Polarization is 206.85.

And the “Average Net Intensity” value ([4]; Week 1, 2-8 °C)?
Its value is 3400-4900.

What about the Polarization ([4]; Week 1, 2-8 °C) of the same compound?
Its Polarization is 208.25.

And the “Average Net Intensity” value ([4]; Week 1, 37 °C)?
Its value is 3500-5000.

And the Polarization ([4]; Week 1, 37 °C)?
The Polarization was 202.78.

And the “Average Net Intensity” value ([4]; Week 1, 45 °C)?
Its value is 3550-5200.

What about the Polarization ([4]; Week 1, 45 °C) of the same compound?
Its Polarization is 200.11.

And the “Average Net Intensity” value ([4]; Week 1, −20 °C)?
Its value is 3300-4800.

What about the Polarization ([4]; Week 1, −20 °C) of the same compound?
Its Polarization is 208.46.

What about the “Average Net Intensity” value ([4]; Week 2, 2-8 °C) of the same compound?
The value was 3100-4590.

What about the Polarization ([4]; Week 2, 2-8 °C) of the same compound?
Its Polarization is 210.41.

What about the “Average Net Intensity” value ([4]; Week 2, −20 °C) of the same compound?
The value was 3180-4635.

And the Polarization ([4]; Week 2, −20 °C)?
The Polarization was 208.85.

And the “Average Net Intensity” value ([4]; Week 4, 2-8 °C)?
Its value is 3395-4988.

And the Polarization ([4]; Week 4, 2-8 °C)?
Its Polarization is 210.35.

What does the source list for CCC1(c2ccccc2)C(=O)NC(=O)NC1=O [Phenobarbital]?
factor which overestimates or underestimates the compound assayed for ([1]; 200 ng/mL added): 1.05; percent cross reactivity ([1]; 200 ng/mL added): 105%; amount of the test compound found in the resulting human urine [1]: 210 ng/mL; % CR ([2]; Conc. Added 1200 ng/mL): 107%; Conc. Found ([2]; Conc. Added 1200 ng/mL): 1280 ng/mL; factor which overestimates or underestimates the compound assayed for ([3]; 200 ng/mL added): 0.70; percent cross reactivity ([3]; 200 ng/mL added): 70%; amount of the test compound found in the resulting human urine [3]: 140 ng/mL; % CR ([3]; Conc. Added 1200 ng/mL): 62%; Conc. Found ([3]; Conc. Added 1200 ng/mL): 740 ng/mL

With Primidone as the compound, how does the “amount of the test compound found” value ([1]; 1 μg/mL added) read?
The value was “ND (None detected: Concentration less than the sensitivity of the assay (60 ng/mL))”.

And the “amount of the test compound found” value ([1]; 10 μg/mL added)?
The value was 90 ng/mL.

And the factor ([1]; 10 μg/mL added)?
Its factor is 0.009.

What about the percent cross reactivity ([1]; 10 μg/mL added) of the same compound?
The percent cross reactivity was 0.90%.

What about the “amount of the test compound found” value ([1]; 100 μg/mL added) of the same compound?
The value was 320 ng/mL.

And the factor ([1]; 100 μg/mL added)?
Its factor is 0.0032.

And the percent cross reactivity ([1]; 100 μg/mL added)?
The percent cross reactivity was 0.32%.

And the “% CR” value ([2]; Conc. Added 100 (ng/mL))?
The value was 0.24%.

And the “Conc. Found” value ([2]; Conc. Added 100 (ng/mL))?
The value was 240 ng/mL.

And the “amount of the test compound found” value ([3]; 10 μg/mL added)?
Its value is “ND (None detected: Concentration less than the sensitivity of the assay (60 ng/mL))”.

And the “amount of the test compound found” value ([3]; 100 μg/mL added)?
Its value is 195 ng/mL.

And the factor ([3]; 100 μg/mL added)?
The factor was 0.00019.

And the percent cross reactivity ([3]; 100 μg/mL added)?
The percent cross reactivity was 0.19%.

And the “% CR” value ([3]; Conc. Added 100 (ng/mL))?
The value was 0.18%.

And the “Conc. Found” value ([3]; Conc. Added 100 (ng/mL))?
The value was 180 ng/mL.

Source: US6472227B1, “Barbiturate assay, tracers, immunogens, antibodies and kit” (Abbott Laboratories, priority 1986, dated 2002)
